Active and inactive are the calls of the source. The calls are words filed in the database; no cut-off is given here.
What was measured:
[1] = biological target: T1, Cyclin-G-associated kinase (Homo sapiens, UniProt O14976); test: Binding affinity to human wild type partial length GAK (G13 to Y338 residues) expressed in bacterial expression system by KinomeScan method
T1 sequence (O14976 whole entry): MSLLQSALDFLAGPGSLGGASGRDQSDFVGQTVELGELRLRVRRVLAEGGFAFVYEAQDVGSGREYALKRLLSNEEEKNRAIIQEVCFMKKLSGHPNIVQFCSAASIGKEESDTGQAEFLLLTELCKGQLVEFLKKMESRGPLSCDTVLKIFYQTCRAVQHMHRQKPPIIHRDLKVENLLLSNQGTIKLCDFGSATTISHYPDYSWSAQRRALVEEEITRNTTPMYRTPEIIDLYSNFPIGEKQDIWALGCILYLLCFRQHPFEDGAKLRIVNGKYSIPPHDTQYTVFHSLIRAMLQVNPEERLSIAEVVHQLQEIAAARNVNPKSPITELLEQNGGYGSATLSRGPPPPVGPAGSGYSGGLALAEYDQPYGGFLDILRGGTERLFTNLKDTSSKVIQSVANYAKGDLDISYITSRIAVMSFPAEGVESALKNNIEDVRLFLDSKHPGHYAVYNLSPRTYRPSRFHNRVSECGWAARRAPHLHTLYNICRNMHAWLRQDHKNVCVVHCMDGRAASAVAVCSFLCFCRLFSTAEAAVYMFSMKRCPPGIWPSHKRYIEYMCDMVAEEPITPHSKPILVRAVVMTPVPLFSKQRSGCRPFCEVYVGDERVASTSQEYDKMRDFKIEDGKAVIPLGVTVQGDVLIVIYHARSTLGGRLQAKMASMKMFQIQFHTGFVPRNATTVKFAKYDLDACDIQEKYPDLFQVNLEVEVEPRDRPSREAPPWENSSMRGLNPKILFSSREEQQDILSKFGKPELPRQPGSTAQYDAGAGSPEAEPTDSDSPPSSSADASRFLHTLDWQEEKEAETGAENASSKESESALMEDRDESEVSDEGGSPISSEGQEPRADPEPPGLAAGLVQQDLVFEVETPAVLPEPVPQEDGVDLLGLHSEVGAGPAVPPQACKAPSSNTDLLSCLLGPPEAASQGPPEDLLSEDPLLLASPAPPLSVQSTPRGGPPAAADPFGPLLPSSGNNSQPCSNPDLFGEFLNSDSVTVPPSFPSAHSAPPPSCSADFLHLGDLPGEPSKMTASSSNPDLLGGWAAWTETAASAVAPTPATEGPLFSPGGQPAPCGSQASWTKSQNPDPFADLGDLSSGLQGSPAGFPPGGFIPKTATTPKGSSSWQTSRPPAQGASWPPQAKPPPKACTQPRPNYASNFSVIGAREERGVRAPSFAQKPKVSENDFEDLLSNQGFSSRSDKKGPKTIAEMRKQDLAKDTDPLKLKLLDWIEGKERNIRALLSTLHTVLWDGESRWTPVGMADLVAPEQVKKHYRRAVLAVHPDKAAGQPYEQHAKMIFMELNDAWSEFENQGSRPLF

Homo sapiens = species: Homo sapiens; test: Binding affinity to human ABL at 1 uM by Kinomescan method
[2] = biological target: Bone morphogenetic protein receptor type-1B (Homo sapiens, UniProt O00238); test: Inhibition of human ALK6 at 1 uM by Kinomescan method
[3] = biological target: RAF proto-oncogene serine/threonine-protein kinase (Homo sapiens) (UniProt P04049); test: Inhibition of human wild type partial length C-Raf (I330 to T640 residues) expressed in bacterial expression system at 1 uM by Kinomescan method relative to control
[4] = biological target: T2, Ephrin type-A receptor 8 (Homo sapiens) (UniProt P29322); test: Inhibition of human wild type partial length EphA8 (Q608 to C920 residues) expressed in bacterial expression system at 1 uM by Kinomescan method
T2 sequence (whole entry): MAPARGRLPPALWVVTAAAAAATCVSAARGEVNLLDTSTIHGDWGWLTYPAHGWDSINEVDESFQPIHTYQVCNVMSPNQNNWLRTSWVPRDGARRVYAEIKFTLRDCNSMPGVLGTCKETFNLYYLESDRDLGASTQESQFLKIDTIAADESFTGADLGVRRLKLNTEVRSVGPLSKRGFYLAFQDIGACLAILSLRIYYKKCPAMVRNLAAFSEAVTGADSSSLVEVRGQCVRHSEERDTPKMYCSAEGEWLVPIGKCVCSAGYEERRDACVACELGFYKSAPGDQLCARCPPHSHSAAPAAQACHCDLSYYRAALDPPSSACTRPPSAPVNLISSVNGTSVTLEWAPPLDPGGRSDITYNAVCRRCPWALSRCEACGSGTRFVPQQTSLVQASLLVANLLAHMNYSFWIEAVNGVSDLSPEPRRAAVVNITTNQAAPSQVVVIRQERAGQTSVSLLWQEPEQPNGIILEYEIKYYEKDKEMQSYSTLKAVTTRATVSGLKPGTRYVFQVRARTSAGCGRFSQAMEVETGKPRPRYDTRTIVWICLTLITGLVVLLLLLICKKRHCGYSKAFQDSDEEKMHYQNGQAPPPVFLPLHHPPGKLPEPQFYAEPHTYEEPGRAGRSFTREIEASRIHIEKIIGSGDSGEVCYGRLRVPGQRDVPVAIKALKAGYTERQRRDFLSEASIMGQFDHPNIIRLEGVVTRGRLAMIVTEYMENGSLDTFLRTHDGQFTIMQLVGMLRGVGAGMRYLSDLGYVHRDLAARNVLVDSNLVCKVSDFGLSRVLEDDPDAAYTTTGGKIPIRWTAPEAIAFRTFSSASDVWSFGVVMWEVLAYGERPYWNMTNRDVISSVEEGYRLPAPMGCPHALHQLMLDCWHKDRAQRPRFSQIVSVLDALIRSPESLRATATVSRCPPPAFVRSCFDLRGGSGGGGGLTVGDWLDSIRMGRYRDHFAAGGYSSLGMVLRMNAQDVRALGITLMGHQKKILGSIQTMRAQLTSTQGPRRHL

[5] = biological target: Tyrosine-protein kinase Fyn (Homo sapiens) (UniProt P06241); test: Inhibition of human wild type partial length Fyn (T243 to L534 residues) expressed in bacterial expression system at 1 uM by Kinomescan method
Sequence of Tyrosine-protein kinase Fyn (Homo sapiens) (P06241 2-537 limits assumed): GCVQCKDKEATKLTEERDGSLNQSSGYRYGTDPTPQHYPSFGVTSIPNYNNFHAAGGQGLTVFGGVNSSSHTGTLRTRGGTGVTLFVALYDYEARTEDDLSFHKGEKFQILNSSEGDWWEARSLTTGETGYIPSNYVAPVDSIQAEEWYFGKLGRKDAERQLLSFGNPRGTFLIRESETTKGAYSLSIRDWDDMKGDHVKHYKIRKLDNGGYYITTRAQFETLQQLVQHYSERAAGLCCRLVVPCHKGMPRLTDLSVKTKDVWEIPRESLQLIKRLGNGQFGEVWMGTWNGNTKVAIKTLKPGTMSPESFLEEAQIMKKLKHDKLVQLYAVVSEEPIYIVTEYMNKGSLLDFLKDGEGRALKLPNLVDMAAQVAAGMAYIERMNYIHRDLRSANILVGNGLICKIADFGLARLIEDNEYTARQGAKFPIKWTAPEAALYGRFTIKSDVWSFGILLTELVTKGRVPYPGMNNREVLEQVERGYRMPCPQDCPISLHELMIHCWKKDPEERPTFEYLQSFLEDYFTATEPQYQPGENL

Sequence of RAF proto-oncogene serine/threonine-protein kinase (Homo sapiens) (P04049 whole entry, the tested form may be a part): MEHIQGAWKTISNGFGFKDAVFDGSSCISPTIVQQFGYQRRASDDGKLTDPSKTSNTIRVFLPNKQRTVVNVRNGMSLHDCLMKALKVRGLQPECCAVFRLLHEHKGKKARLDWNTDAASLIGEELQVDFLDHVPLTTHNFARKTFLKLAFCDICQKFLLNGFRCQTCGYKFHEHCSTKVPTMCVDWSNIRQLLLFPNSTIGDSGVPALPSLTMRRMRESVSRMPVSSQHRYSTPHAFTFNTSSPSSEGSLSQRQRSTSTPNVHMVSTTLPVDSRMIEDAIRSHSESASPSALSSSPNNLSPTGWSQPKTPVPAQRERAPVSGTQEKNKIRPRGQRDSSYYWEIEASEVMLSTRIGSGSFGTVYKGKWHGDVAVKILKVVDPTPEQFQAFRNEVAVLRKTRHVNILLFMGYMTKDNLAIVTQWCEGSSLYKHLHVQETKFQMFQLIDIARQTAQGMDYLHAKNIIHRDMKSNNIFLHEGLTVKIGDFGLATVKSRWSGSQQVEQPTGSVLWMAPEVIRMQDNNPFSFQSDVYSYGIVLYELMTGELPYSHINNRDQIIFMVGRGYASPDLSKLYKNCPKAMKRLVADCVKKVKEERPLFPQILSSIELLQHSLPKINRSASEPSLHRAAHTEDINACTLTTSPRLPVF
Sequence of Bone morphogenetic protein receptor type-1B (O00238 whole entry, the tested form may be a part): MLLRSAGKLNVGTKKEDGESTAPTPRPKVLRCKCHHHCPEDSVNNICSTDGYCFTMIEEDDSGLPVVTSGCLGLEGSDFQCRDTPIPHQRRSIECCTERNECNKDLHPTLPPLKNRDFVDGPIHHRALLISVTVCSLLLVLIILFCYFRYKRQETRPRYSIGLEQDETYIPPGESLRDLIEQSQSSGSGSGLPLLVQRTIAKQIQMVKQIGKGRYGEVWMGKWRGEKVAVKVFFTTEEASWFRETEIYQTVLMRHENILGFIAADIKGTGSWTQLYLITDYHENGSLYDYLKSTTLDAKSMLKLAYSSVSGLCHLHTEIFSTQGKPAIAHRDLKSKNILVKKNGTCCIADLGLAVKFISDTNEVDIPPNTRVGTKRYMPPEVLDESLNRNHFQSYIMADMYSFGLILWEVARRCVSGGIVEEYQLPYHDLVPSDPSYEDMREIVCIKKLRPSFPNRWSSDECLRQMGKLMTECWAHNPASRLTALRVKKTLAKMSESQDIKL

Row | Kd [1] [nM] | Activity (Homo sapiens) | inhibition [2] | inhibition [3] [%] | inhibition [4] | inhibition [5] | SMILES
1 | 7.6 | Active | Active | 70 | Active | Active | COc1cc(Nc2ccnc3cc(I)ccc23)cc(OC)c1OC
2 | 43 | Active | Active | 70 | Active | Active | COc1cc(Nc2ccnc3cc(C#N)ccc23)cc(OC)c1OC
3 | 8.6 | Active | Active | 70 | Active | Active | COc1cc(Nc2ccnc3cc(Br)ccc23)cc(OC)c1OC
4 | 23 | Active | Active | 70 | Active | Active | COc1cc(Nc2ccnc3cc(C(F)(F)F)ccc23)cc(OC)c1OC
5 | 13 | Active | Active | 70 | Active | Active | COc1cc(Nc2ccnc3cc(Cl)ccc23)cc(OC)c1OC

— ChEMBL document CHEMBL4665659, “Utilizing comprehensive and mini-kinome panels to optimize the selectivity of quinoline inhibitors for cyclin G associated kinase (GAK)” (Bioorg Med Chem Lett, 2019)
